Source: patent US20240246954A1, “COMPOSITIONS AND METHODS FOR INHIBITING KRAS” (TheRas, Inc., priority 2021, published 2024)

What was measured:
GDP KRAS G12D = GDP KRAS G12D (Homo sapiens, UniProt P01116, G12D); assay: SPR binding affinity, GDP KRAS G12D; conditions: GDP-bound KRAS G12D
GppNHp KRAS G12D = GppNHp KRAS G12D (Homo sapiens, UniProt P01116, G12D); assay: SPR binding affinity, GppNHp KRAS G12D; conditions: GppNHp-bound KRAS G12D
[1] = target: T1, Avi-KRAS G12D (1-169) GppNHp/RAF1 RBD-3×FLAG (52-151) (Homo sapiens, UniProt P01116, G12D); assay: HTRF Raf1-KRAS G12D-GppNHp disruption assay; assay type: biochemical; conditions: 1 h incubation
T1 construct: Avi-KRAS G12D (1-169) GppNHp
In short: (§1)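 HTRF read-out (320 nm excitation, 615 nm emission) after two 1 h room-temperature incubations, first with protein mix, then detection reagents. Ten-point dilution series starting at 100 μM; results given as % activity relative to DMSO at 100%.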

[2] = target: T2, Avi-KRAS G12D/Q25A (1-169) GppNHp/3×FLAG-PI3KCA (157-299) (Homo sapiens, UniProt P01116, G12D/Q25A); assay: HTRF PI3KCA-KRAS G12D/Q25A-GppNHp disruption assay; assay type: biochemical; conditions: 1 h incubation
T2 construct: Avi-KRAS G12D/Q25A (1-169) GppNHp
In short: as §1

[3] = system: pERK in GP2d cells (KRAS G12D); assay: Cell-based pERK HTRF assay; conditions: GP2d, 1 h, 60 min incubation
In short: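 GP2d cells (DMEM, 10% FBS) treated 60 min with compounds in a 9-point half-log series from 1 μM top concentration, 0.25% DMSO. Lysates read for pERK by HTRF (d2/Eu cryptate antibodies) after 4–24 h at room temperature; emission at 615 nm.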

Sequence of GppNHp KRAS G12D (P01116 1-188 isoform P01116-2 G12D): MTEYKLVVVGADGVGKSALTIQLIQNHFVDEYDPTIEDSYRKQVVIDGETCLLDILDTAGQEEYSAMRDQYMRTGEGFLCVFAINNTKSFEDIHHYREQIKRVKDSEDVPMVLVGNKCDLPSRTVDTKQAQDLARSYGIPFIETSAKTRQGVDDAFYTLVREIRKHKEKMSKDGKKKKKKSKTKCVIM
Sequence of GDP KRAS G12D (P01116 1-188 isoform P01116-2 G12D): as above
T1 sequence (P01116 1-169 isoform P01116-2 G12D limits assumed): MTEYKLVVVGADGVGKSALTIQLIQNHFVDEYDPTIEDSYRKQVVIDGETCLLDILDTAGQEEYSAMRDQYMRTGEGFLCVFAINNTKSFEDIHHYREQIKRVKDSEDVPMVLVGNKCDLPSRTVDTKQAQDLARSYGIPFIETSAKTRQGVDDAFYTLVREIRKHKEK
T2 sequence (P01116 1-169 isoform P01116-2 G12D/Q25A limits assumed): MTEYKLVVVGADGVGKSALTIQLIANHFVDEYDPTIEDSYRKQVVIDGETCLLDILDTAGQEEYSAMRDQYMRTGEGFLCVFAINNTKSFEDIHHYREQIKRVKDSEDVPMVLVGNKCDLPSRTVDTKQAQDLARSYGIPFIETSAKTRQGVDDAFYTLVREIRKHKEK

Row | SMILES | Kd (GDP KRAS G12D) [nM] | Kd (GppNHp KRAS G12D) [nM] | IC50 [1] [nM] | IC50 [2] [nM] | IC50 [3] [nM]
1 | Nc1nc2c(-c3c(C(F)(F)F)cc4c(N[C@@H]5CCNC5)nc(OC[C@@]56CCCN5C[C@H](F)C6)nc4c3F)ccc(F)c2s1 (atropisomer, axis not shown) [Compound 249] | ≤ 100 | 1000 to 10000 | 1000 to 10000 | 10000 to 30000 | –
2 | Nc1nc2c(-c3c(C(F)(F)F)cc4c(N5CC6CCC(C5)N6)nc(OC[C@@]56CCCN5C[C@H](F)C6)nc4c3F)ccc(F)c2s1 (single isomer, unassigned) [Compound 246] | ≤ 100 | 1000 to 10000 | 1000 to 10000 | 1000 to 10000 | –
3 | CN1CCC[C@H]1COc1nc(N2CCN(C(=O)CN)[C@@H](CC#N)C2)c2cc(Cl)c(-c3ccc(F)c4sc(N)nc34)c(O)c2n1 [Compound 59] | – | 1000 to 10000 | 10000 to 30000 | 10000 to 30000 | –
4 | Cc1ccc2[nH]ncc2c1-c1c(Cl)cc2c(NCCN)nc(OC[C@@H]3CCCN3C)nc2c1F [Compound 62] | – | 10000 to 30000 | 10000 to 30000 | 10000 to 30000 | –
5 | CO[C@@H]1CN(C)C[C@H]1Oc1nc(N2CCNCC2)c2cc(Cl)c(-c3ccc(F)c4sc(N)nc34)c(F)c2n1 [Compound 63] | – | 10000 to 30000 | 10000 to 30000 | 10000 to 30000 | –
6 | CN1CCC[C@H]1COc1nc(NCCN)c2cc(Cl)c(-c3cccc4cc(O)ccc34)c(F)c2n1 [Compound 74] | – | 10000 to 30000 | 10000 to 30000 | 10000 to 30000 | –
7 | Nc1nc2c(-c3c(Cl)cc4c(NC5CNC5)nc(OCC56CCCN5CCC6)nc4c3F)ccc(F)c2s1 [Compound 89] | – | 100 to 1000 | 1000 to 10000 | 1000 to 10000 | –
8 | N#Cc1c(N)sc2c(F)ccc(-c3c(C(F)(F)F)cc4c(N5C[C@H]6CC[C@@H](C5)N6)nc(N5CC(N6CC7(CC7)C6)C5)nc4c3F)c12 [Compound 363, 4-(2-(3-(5-azaspiro[2.3]hexan-5-yl)azetidin-1-yl)-4-((1R,5S)-3,8-diazabicyclo[3.2.1]octan-3-yl)-8-fluoro-6-(trifluoromethyl)quinazolin-7-yl)-2-amino-7-fluorobenzo[b]thiophene-3-carbonitrile] | – | – | 100 to 1000 | 100 to 1000 | ≤ 100
9 | CN(c1nc(OC[C@@]23CCCN2C[C@H](F)C3)nc2c(F)c(-c3ccc(F)c4sc(N)c(C#N)c34)c(C(F)(F)F)cc12)[C@@H]1CCN[C@@H]1CF [Compound 364] | – | – | ≤ 100 | 100 to 1000 | ≤ 100
10 | Nc1nc2c(-c3c(C(F)F)cc4c(N5C[C@H]6CC[C@@H](C5)N6)nc(OC[C@@]56CCCN5C[C@H](F)C6)nc4c3Cl)ccc(F)c2s1 [Compound 368, 4-(4-((1R,5S)-3,8-diazabicyclo[3.2.1]octan-3-yl)-8-chloro-6-(difluoromethyl)-2-(((2R,7aS)-2-fluorotetrahydro-1H-pyrrolizin-7a(5H)-yl)methoxy)quinazolin-7-yl)-7-fluorobenzo[d]thiazol-2-amine] | – | – | 100 to 1000 | 100 to 1000 | ≤ 100
11 | Nc1nc2c(-c3c(C(F)F)cc4c(N5C[C@H]6CC[C@@H](C5)N6)nc(OC[C@@]56CCCN5C[C@H](F)C6)nc4c3F)ccc(F)c2s1 [Compound 370, 4-(4-((1R,5S)-3,8-diazabicyclo[3.2.1]octan-3-yl)-6-(difluoromethyl)-8-fluoro-2-(((2R,7aS)-2-fluorotetrahydro-1H-pyrrolizin-7a(5H)-yl)methoxy)quinazolin-7-yl)-7-fluorobenzo[d]thiazol-2-amine] | – | – | 100 to 1000 | 100 to 1000 | ≤ 100
12 | N#Cc1c(-c2ccc(F)c3sc(N)c(C#N)c23)c(Cl)cc2c(N3CC4CCC(C3)N4)nc(OC[C@@]34CCCN3C[C@H](F)C4)nc12 [Compound 371] | – | – | 100 to 1000 | 100 to 1000 | ≤ 100
13 | N#Cc1cc2c(N3CC4CCC(C3)N4)nc(OC[C@@]34CCCN3C[C@H](F)C4)nc2c(Cl)c1-c1ccc(F)c2sc(N)c(C#N)c12 [Compound 372] | – | – | 1000 to 10000 | 1000 to 10000 | 100 to 1000

Continued, values first:

Row | Kd (GDP KRAS G12D) [nM] | Kd (GppNHp KRAS G12D) [nM] | IC50 [1] [nM] | IC50 [2] [nM] | IC50 [3] [nM] | SMILES
14 | 1000 to 10000 | 10000 to 30000 | 10000 to 30000 | 10000 to 30000 | – | Nc1nc2c(-c3c(Cl)cc4c(N5CCNCC5)ncnc4c3F)ccc(F)c2s1 [Compound 1, 4-(6-chloro-8-fluoro-4-(piperazin-1-yl)quinazolin-7-yl)-7-fluorobenzo[d]thiazol-2-amine]
15 | 1000 to 10000 | 10000 to 30000 | 10000 to 30000 | 10000 to 30000 | – | NCCNc1ncnc2c(F)c(-c3ccc(F)c4sc(N)nc34)c(Cl)cc12 [Compound 5, N^1-(7-(2-amino-7-fluorobenzo[d]thiazol-4-yl)-6-chloro-8-fluoroquinazolin-4-yl)ethane-1,2-diamine]
16 | 1000 to 10000 | 10000 to 30000 | 10000 to 30000 | 10000 to 30000 | – | N#CC[C@H]1CN(c2ncnc3c(F)c(-c4ccc(F)c5sc(N)nc45)c(Cl)cc23)CCN1C(=O)CN [Compound 29]
17 | 1000 to 10000 | 10000 to 30000 | 10000 to 30000 | 10000 to 30000 | – | CN(C)C1CN(c2nc(NCCN)c3cc(Cl)c(-c4ccc(F)c5sc(N)nc45)c(F)c3n2)C1 [Compound 46, N^1-(7-(2-amino-7-fluorobenzo[d]thiazol-4-yl)-6-chloro-2-(3-(dimethylamino)azetidin-1-yl)-8-fluoroquinazolin-4-yl)ethane-1,2-diamine]
18 | 1000 to 10000 | 10000 to 30000 | 10000 to 30000 | 10000 to 30000 | – | CN(C)C1CN(c2nc(N3CCNCC3)c3cc(Cl)c(-c4ccc(F)c5sc(N)nc45)c(F)c3n2)C1 [Compound 47]
19 | ≤ 100 | 1000 to 10000 | 1000 to 10000 | 1000 to 10000 | – | CN1CCC[C@H]1COc1nc(NCCN)c2cc(Cl)c(-c3ccc(F)c4sc(N)nc34)c(F)c2n1 [Compound 49]
20 | 100 to 1000 | 1000 to 10000 | 1000 to 10000 | 1000 to 10000 | – | CN1CCC[C@H]1COc1nc(N2CCN(C(=O)CN)[C@@H](CC#N)C2)c2cc(Cl)c(-c3ccc(F)c4sc(N)nc34)c(F)c2n1 [Compound 54]
21 | ≤ 100 | 1000 to 10000 | 1000 to 10000 | 1000 to 10000 | – | CN1CCC[C@H]1COc1nc(NC2CNC2)c2cc(Cl)c(-c3ccc(F)c4sc(N)nc34)c(F)c2n1 [Compound 55, 4-(4-(azetidin-3-ylamino)-6-chloro-8-fluoro-2-(((S)-1-methylpyrrolidin-2-yl)methoxy)quinazolin-7-yl)-7-fluorobenzo[d]thiazol-2-amine]
22 | 100 to 1000 | 10000 to 30000 | 10000 to 30000 | 10000 to 30000 | – | CN1CCC[C@H]1COc1nc(N2CCN[C@@H](CC#N)C2)c2cc(Cl)c(-c3ccc(F)c4sc(N)nc34)c(F)c2n1 [Compound 56]
23 | – | 10000 to 30000 | 10000 to 30000 | 10000 to 30000 | – | CO[C@@H]1CN(C)C[C@H]1Oc1nc(NCCN)c2cc(Cl)c(-c3ccc(F)c4sc(N)nc34)c(F)c2n1 [Compound 60]
24 | – | 1000 to 10000 | 1000 to 10000 | 1000 to 10000 | – | CO[C@@H]1C[C@@H](COc2nc(NCCN)c3cc(Cl)c(-c4ccc(F)c5sc(N)nc45)c(F)c3n2)N(C)C1 [Compound 61]
25 | – | 100 to 1000 | 1000 to 10000 | 1000 to 10000 | – | NCCNc1nc(OCC23CCCN2CCC3)nc2c(F)c(-c3ccc(F)c4sc(N)nc34)c(Cl)cc12 [Compound 77]
26 | – | – | 100 to 1000 | 100 to 1000 | 100 to 1000 | CN(c1nc(OC[C@@]23CCCN2C[C@H](F)C3)nc2c(F)c(-c3ccc(F)c4sc(N)c(C#N)c34)c(F)cc12)[C@H]1CCNC1 [Compound 361, 2-amino-4-(6,8-difluoro-2-(((2R,7aS)-2-fluorotetrahydro-1H-pyrrolizin-7a(5H)-yl)methoxy)-4-(methyl((S)-pyrrolidin-3-yl)amino)quinazolin-7-yl)-7-fluorobenzo[b]thiophene-3-carbonitrile]
27 | – | – | 100 to 1000 | 100 to 1000 | 100 to 1000 | CN(c1nc(N2CC(N3CC4(CC4)C3)C2)nc2c(F)c(-c3ccc(F)c4sc(N)c(C#N)c34)c(C(F)(F)F)cc12)[C@@H]1CCNC1 [Compound 365]
28 | – | – | 1000 to 10000 | 10000 to 30000 | > 1000 | Nc1nc2c(-c3cc4nc(OC[C@@]56CCCN5C[C@H](F)C6)nc(O[C@H]5CNC[C@@H]5F)c4cc3C(F)(F)F)ccc(F)c2s1 [Compound 374]
29 | – | – | 100 to 1000 | 100 to 1000 | ≤ 100 | N#Cc1c(N)sc2c(F)ccc(-c3c(C(F)(F)F)cc4c(N5CC[C@@H]6CNCC[C@@H]65)nc(OC[C@@]56CCCN5C[C@H](F)C6)nc4c3F)c12 [Compound 376]
30 | – | – | 100 to 1000 | 100 to 1000 | 100 to 1000 | CN(c1nc(OC[C@@]23CCCN2C[C@H](F)C3)nc2c(F)c(-c3ccc(F)c4sc(N)c(C#N)c34)c(F)cc12)[C@@H]1CCNC1 [Compound 377]
31 | – | – | ≤ 100 | 100 to 1000 | ≤ 100 | C[C@@H]1CN(c2nc(OC[C@@]34CCCN3C[C@H](F)C4)nc3c(F)c(-c4ccc(F)c5sc(N)c(C#N)c45)c(C(F)(F)F)cc23)[C@@H](C)CN1 [Compound 378]
32 | – | – | 100 to 1000 | 100 to 1000 | ≤ 100 | CN(c1nc(OC[C@@]23CCCN2C[C@H](F)C3)nc2c(F)c(-c3ccc(F)c4sc(N)c(C#N)c34)c(Cl)cc12)[C@@H]1CCNC1 [Compound 379]
